# Patent publication US11266613B2 (priority 2017, dated 2022)
# Where “and” joins values, the source holds several entries; their conditions need not be identical. Identical values can stand only once. Like-named read-outs stand apart in the source and are kept apart here.
# Tests used:
# [1] = system: anaesthetised rats, myocardial infarction
# [2] = system: arrhythmias which occur early after occlusion of the left coronary artery
# Protocol: Groups of female rats, each in the weight range of 200-300 g, were studied.
# The protocol used followed that used in many previous studies seeking dose-related data for novel compounds and reference drugs.
# Five minutes after the start of drug delivery the left main coronary artery was occluded (J Mol Cell Cardiol 19: 399-419 1987). This caused a region of ischaemia (verified by the occluded zone, OZ) which was maintained for the duration of the observation period (30 minutes) during which severe arrhythmias caused by the resultant cardiac ischaemia occur (J Mol Cell Cardiol 19: 399-419 1987).
# This study was not randomized but was progressed from a low dose to a high dose.
# Outcomes were evaluated versus a historical data base of 140 rats treated identically (0.8% saline infusion and coronary artery ligation).
# Procedures: • From the ECG, the PR and QT and heart rate were determined. • From a femoral artery catheter, blood pressure (BP) was monitored. • Arrhythmic Score (AS) was determined by counting the number of ventricular premature beats (VPBs) and the occurrence of ventricular tachycardia (VT) and fibrillation (VF) (Cardiovasc Res 22: 656-665, 1988). • Occlusion Zone (OZ) was measured by weight (g) using a dye exclusion method (J Mol Cell Cardiol 19: 399-419 1987).
# Rat isolated heart = test: Rat isolated heart, 30 min regional ischaemia (coronary ligation), VF incidence (Example 2); conditions: for reduction of incidence of ischaemia-induced VF: 30 min regional ischaemia, test solutions 15 μM and 150 μM
# Protocol: Model Choice: • Rat isolated heart, 30 min regional ischaemia (coronary ligation) • High baseline susceptibility to VF • Scope for detection of VF suppression by drugs
# [3] = system: pentobarbitone anaesthetized mice; conditions: bolus dose of 100 mg/kg i.v.
# Source text: An initial toxicity study was undertaken in pentobarbitone anaesthetized mice.
# [4] = system: pentobarbitone anaesthetized rats; conditions: 60 mg/kg i.v. over 20 minutes
# Protocol: A study was carried out to assess tolerability in pentobarbitone anaesthetized rats.
# [5] = system: anaesthetised rats, induced infarction, VF; conditions: for VF-free survival after 30 minutes: 2 mg/kg bolus and 0.5 mg/kg/min infusion, IV before induced infarction, control 0%
# Source text: Method: • Randomized, blinded and fully powered trial • Groups of n=6 anaesthetised rats • Test solutions delivered by IV to rat tail vein before induced infarction
# Langendorff preparation = conditions: cited from earlier work; for inhibition of VF: administered before or after ischaemia onset, Langendorff preparation
# [6] = system: patients at high risk of VT or VF following myocardial infarction; conditions: cited from earlier work
# [7] = LNO 3 mg/kg total dose i.v. over 20 min, group mean
# [8] = LNO 10 mg/kg total dose i.v. over 20 min, group mean
# [9] = LNO 10 mg/kg total dose i.v. over 20 min, individual rat
# [10] = LNO 30 mg/kg total dose i.v. over 20 min, group mean
# [11] = LNO 100 mg/kg total dose i.v. over 20 min, group mean
smiles,measurement,setting,value
"CC[N+]([O-])(CC)CC(=O)Nc1c(C)cccc1C [LNO, lidocaine N-oxide]",survival rate,"[1]; anaesthetised rats, LNO directly to the bloodstream prior to myocardial infarction",100%
same,"signs of excessive reduction in contractile function, decreased heart rate, complete heart block or asystole","[1]; rat, in vivo",no signs
same,therapeutic window from the threshold effective dose,[2]; 3 mg/kg to 30 mg/kg i.v.,at least ten-fold
same,AS (arrhythmia score),[2]; [7],4.5
same,VF (ventricular fibrillation),[2]; [7],0.25 number of episodes
same,VT (ventricular tachycardia),[2]; [7],7.75 number of episodes
same,AS (arrhythmia score),"[2]; LNO 3 mg/kg total dose i.v. over 20 min, individual rat",7 and 3 (2×) and 5
same,AS (arrhythmia score),[2]; [8],1.67
same,VT (ventricular tachycardia),[2]; [8],3 number of episodes
same,AS (arrhythmia score),[2]; [9],1 (2×) and 3
same,VF (ventricular fibrillation),[2]; [9],0 number of episodes
same,AS (arrhythmia score),[2]; [10],2
same,VF (ventricular fibrillation),[2]; [10],2 number of episodes
same,VT (ventricular tachycardia),[2]; [10],22 number of episodes
same,AS (arrhythmia score),[2]; [11],2.67
same,VF (ventricular fibrillation),[2]; [11],0.33 number of episodes
same,VT (ventricular tachycardia),[2]; [11],3.67 number of episodes
same,Occl 10’ BP (blood pressure),"[2]; LNO 100 mg/kg total dose i.v. over 20 min, individual rat",Dead
same,arrhythmia score (AS) versus control,"[2]; each tested dose: 3, 10, 30 and 100 mg/kg, 30 min regional ischaemia, vs historical controls",significantly reduced
same,off-target actions,"[2]; highest dose of LNO, 100 mg/kg",one death due to convulsion
same,dose up to which no off-target effects are seen,"[2]; rat, in vivo, iv",30 mg/kg
same,lowest dose at which antiarrhythmic activity is seen (threshold effective dose),"[2]; regional ischaemia, i.v.",3 mg/kg
same,effect on PR,Rat isolated heart,did not show any effect
same,effect on heart rate,Rat isolated heart,only a small effect
same,reduction of incidence of ischaemia-induced VF,Rat isolated heart; isolated rat heart,equally as effective as lidocaine
same,tolerability of the dose,[3],well tolerated
same,tolerability of the dose,[4],tolerated
same,VF-free survival after 30 minutes,[5],67%
same,effectiveness against VF,"[5]; anaesthetised rats, IV",effective
same,time post-infarction before a VF event,"[5]; anaesthetised rats, IV",longer time
same,bradyarrhythmias,"[5]; rat, in vivo, iv",did not
same,inhibition of VF,Langendorff preparation,equi-effective
same,dose-limiting bradycardia or PR interval elongation,Langendorff preparation,didn't induce
O=C(NCC1CCCCN1)c1cc(OCC(F)(F)F)ccc1OCC(F)(F)F (centres unmarked) [flecainide],increase in the risk of mortality,[6],three-fold
"CCN(CC)CC(=O)Nc1c(C)cccc1C [lidocaine, reference compound]",PR interval versus control,"Rat isolated heart; 15 μM, during 30 min ischaemia",higher
same,reduction of incidence of ischaemia-induced VF,Rat isolated heart; isolated rat heart,equally effective
same,effect on PR,"Rat isolated heart; isolated rat heart, conclusion",did show an impact
same,VF-free survival after 30 minutes,[5],67%
same,bradyarrhythmias,"[5]; anaesthetised rats, IV",led to bradyarrhythmias
same,effectiveness against VF,"[5]; anaesthetised rats, IV",effective
same,inhibition of VF,Langendorff preparation,equi-effective
